Experimental data: ChEMBL document CHEMBL5346921, “Discovery of novel benzamide derivatives bearing benzamidophenyl and phenylacetamidophenyl scaffolds as potential antitumor agents via targeting PARP-1” (Eur J Med Chem, 2023)
Calls of active or inactive are those of the source. No cut-off for these calls is given here.

Tests used:
[1] = Cytotoxicity against human NCM460 cells assessed as reduction in cell viability incubated for 48 hrs by MTT assay; type: toxicity, cell-based
[2] = target: Poly [ADP-ribose] polymerase 2 (Homo sapiens, UniProt Q9UGN5); test: Inhibition of human PARP-2 by ELISA
HCT-116 [3] = test: Inhibition of colony formation in human HCT-116 cells pretreated for 48 hrs followed by replacement of fresh medium and measured every 3 days by crystal violet staining based analysis; type: functional, cell-based; settings: dose 0.3-3 µM
HCT-116 [4] = test: Inhibition of cell migration in human HCT-116 cells at 0.3 uM incubated for 24 hrs by wound healing assay; type: functional
HCT-116 [5] = test: Inhibition of cell migration in human HCT-116 cells at 3 uM incubated for 24 hrs by wound healing assay; type: functional
HCT-116 [6] = test: Inhibition of cell migration in human HCT-116 cells at 0.3 uM incubated for 48 hrs by wound healing assay; type: functional
HCT-116 [7] = test: Induction of DNA double-strand breaks in human HCT-116 cells assessed as gammaH2AX accumulation incubated for 48 hrs by western blot analysis; type: functional, cell-based; settings: dose 0.3-3 µM
HCT-116 [8] = test: Induction of DNA double strand breaks in human HCT-116 cells assessed as gammaH2AX accumulation at 3 uM incubated for 48 hrs by immunofluorescence analysis; type: functional, cell-based
HCT-116 [9] = test: Induction of cell cycle arrest in human HCT-116 cells assessed as accumulation of cells at G0/G1 phase at 0.3 uM incubated for 48 hrs by PI staining based flow cytometry (reference value: 62.1%); type: functional
HCT-116 [10] = test: Induction of cell cycle arrest in human HCT-116 cells assessed as accumulation of cells at S phase at 0.3 uM incubated for 48 hrs by PI staining based flow cytometry (reference value: 14.5%); type: functional
HCT-116 [11] = test: Induction of cell cycle arrest in human HCT-116 cells assessed as accumulation of cells at G0/G1 phase at 1.5 uM incubated for 48 hrs by PI staining based flow cytometry (reference value: 62.1%); type: functional
HCT-116 [12] = test: Induction of cell cycle arrest in human HCT-116 cells assessed as accumulation of cells at S phase at 1.5 uM incubated for 48 hrs by PI staining based flow cytometry (reference value: 14.5%); type: functional
HCT-116 [13] = test: Induction of cell cycle arrest in human HCT-116 cells assessed as accumulation of cells at S phase at 7.5 uM incubated for 48 hrs by PI staining based flow cytometry (reference value: 14.5%); type: functional
HCT-116 [14] = test: Induction of cell cycle arrest in human HCT-116 cells assessed as accumulation of cells at G0/G1 phase at 0.3 uM incubated for 72 hrs by PI staining based flow cytometry (reference value: 57.2%); type: functional
HCT-116 [15] = test: Induction of cell cycle arrest in human HCT-116 cells assessed as accumulation of cells at S phase at 0.3 uM incubated for 72 hrs by PI staining based flow cytometry (reference value: 16.7%); type: functional
HCT-116 [16] = test: Induction of cell cycle arrest in human HCT-116 cells assessed as accumulation of cells at S phase at 1.5 uM incubated for 72 hrs by PI staining based flow cytometry (reference value: 16.7%); type: functional
HCT-116 [17] = test: Induction of cell cycle arrest in human HCT-116 cells assessed as accumulation of cells at S phase at 7.5 uM incubated for 72 hrs by PI staining based flow cytometry (reference value: 16.7%); type: functional
HCT-116 [18] = test: Induction of apoptosis in human HCT-116 cells assessed as viable cells at 1.5 uM incubated for 48 hrs by AnnexinV-FITC/PI staining based flow cytometry (reference value: 97.89%); type: functional; settings: read-out: Activity
HCT-116 [19] = test: Induction of apoptosis in human HCT-116 cells assessed as late apoptotic cells at 1.5 uM incubated for 48 hrs by AnnexinV-FITC/PI staining based flow cytometry (reference value: 0%); type: functional
HCT-116 [20] = test: Induction of apoptosis in human HCT-116 cells assessed as necrotic cells at 1.5 uM incubated for 48 hrs by AnnexinV-FITC/PI staining based flow cytometry (reference value: 0%); type: functional
HCT-116 [21] = test: Induction of apoptosis in human HCT-116 cells assessed as viable cells at 7.5 uM incubated for 48 hrs by AnnexinV-FITC/PI staining based flow cytometry (reference value: 97.89%); type: functional; settings: read-out: Activity
HCT-116 [22] = test: Induction of apoptosis in human HCT-116 cells assessed as late apoptotic cells at 7.5 uM incubated for 48 hrs by AnnexinV-FITC/PI staining based flow cytometry (reference value: 0%); type: functional
HCT-116 [23] = test: Induction of apoptosis in human HCT-116 cells assessed as necrotic cells at 7.5 uM incubated for 48 hrs by AnnexinV-FITC/PI staining based flow cytometry (reference value: 0%); type: functional
HCT-116 [24] = test: Induction of apoptosis in human HCT-116 cells assessed as viable cells at 0.3 uM incubated for 72 hrs by AnnexinV-FITC/PI staining based analysis (reference value: 98.95%); type: functional; settings: read-out: Activity
HCT-116 [25] = test: Induction of apoptosis in human HCT-116 cells assessed as early apoptotic cells at 0.3 uM incubated for 72 hrs by AnnexinV-FITC/PI staining based analysis (reference value: 1.05%); type: functional
HCT-116 [26] = test: Induction of apoptosis in human HCT-116 cells assessed as necrotic cells at 0.3 uM incubated for 72 hrs by AnnexinV-FITC/PI staining based analysis (reference value: 0%); type: functional
HCT-116 [27] = test: Induction of apoptosis in human HCT-116 cells assessed as early apoptotic cells at 1.5 uM incubated for 72 hrs by AnnexinV-FITC/PI staining based analysis (reference value: 1.05%); type: functional
HCT-116 [28] = test: Induction of apoptosis in human HCT-116 cells assessed as viable cells at 7.5 uM incubated for 72 hrs by AnnexinV-FITC/PI staining based analysis (reference value: 98.95%); type: functional; settings: read-out: Activity
HCT-116 [29] = test: Induction of apoptosis in human HCT-116 cells assessed as early apoptotic cells at 7.5 uM incubated for 72 hrs by AnnexinV-FITC/PI staining based analysis (reference value: 1.05%); type: functional
HCT-116 [30] = test: Induction of apoptosis in human HCT-116 cells assessed as late apoptotic cells at 7.5 uM incubated for 72 hrs by AnnexinV-FITC/PI staining based analysis (reference value: 0%); type: functional
HCT-116 [31] = test: Induction of apoptosis in human HCT-116 cells assessed as necrotic cells at 7.5 uM incubated for 72 hrs by AnnexinV-FITC/PI staining based analysis (reference value: 0%); type: functional
HCT-116 [32] = test: Induction of mitochondrial membrane potential loss in human HCT-116 cells assessed as JC-1 aggregate level by measuring red fluorescence intensity at 1 uM incubated for 48 hrs by JC-1 staining based flow cytometry (reference value: 96.72%); type: functional
HCT-116 [33] = test: Induction of mitochondrial membrane potential loss in human HCT-116 cells assessed as JC-1 monomer level by measuring green fluorescence intensity at 1 uM incubated for 48 hrs by JC-1 staining based flow cytometry (reference value: 3.28%); type: functional
HCT-116 [34] = test: Induction of apoptosis in human HCT-116 cells assessed as increase in Bax protein expression incubated for 48 hrs by western blot analysis; type: functional, cell-based; settings: dose 0.3-3 µM
HCT-116 [35] = test: Induction of apoptosis in human HCT-116 cells assessed as decrease in Bcl-2 protein expression incubated for 48 hrs by western blot analysis; type: functional, cell-based; settings: dose 0.3-3 µM

Chain of Poly [ADP-ribose] polymerase 2 (Q9UGN5 whole entry): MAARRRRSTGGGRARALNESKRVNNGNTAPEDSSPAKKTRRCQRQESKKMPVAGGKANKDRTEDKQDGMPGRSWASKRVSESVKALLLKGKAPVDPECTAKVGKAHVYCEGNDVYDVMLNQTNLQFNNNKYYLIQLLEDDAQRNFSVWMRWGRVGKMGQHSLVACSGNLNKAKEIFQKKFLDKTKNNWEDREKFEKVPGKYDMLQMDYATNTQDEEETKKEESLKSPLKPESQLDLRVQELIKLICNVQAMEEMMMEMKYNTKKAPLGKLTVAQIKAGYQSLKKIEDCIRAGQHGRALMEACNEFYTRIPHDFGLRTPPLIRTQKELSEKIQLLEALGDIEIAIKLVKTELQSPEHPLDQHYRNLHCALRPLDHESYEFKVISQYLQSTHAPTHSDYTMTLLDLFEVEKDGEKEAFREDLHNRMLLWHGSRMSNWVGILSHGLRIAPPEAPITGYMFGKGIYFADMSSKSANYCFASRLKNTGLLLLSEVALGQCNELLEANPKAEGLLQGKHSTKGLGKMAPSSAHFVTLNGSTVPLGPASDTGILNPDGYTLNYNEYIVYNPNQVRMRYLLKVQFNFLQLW

IC50 [2]: 0.00234 µM
Compound: NC(=O)c1ccccc1OCc1cccc(NC(=O)c2ccc(Br)cc2)c1
IC50 at 48 h [1]: 487 µM
inhibition (HCT-116 [3]): Dose-Dependent Effect
inhibition at 0.3 µM (HCT-116 [4]): 12.4%
inhibition at 3 µM (HCT-116 [5]): 22.3%
inhibition at 0.3 µM (HCT-116 [6]): 30.5%
Activity (HCT-116 [7]): Dose-Dependent Effect
Activity (HCT-116 [8]): Active
Activity (HCT-116 [9]): 60.7%
Activity (HCT-116 [10]): 11%
Activity (HCT-116 [11]): 56.6%
Activity (HCT-116 [12]): 12.5%
Activity (HCT-116 [13]): 10.4%
Activity (HCT-116 [14]): 46.9%
Activity (HCT-116 [15]): 22.4%
Activity (HCT-116 [16]): 15.6%
Activity (HCT-116 [17]): 20.3%
viability at 1.5 µM (HCT-116 [18]): 73%
Activity (HCT-116 [19]): 2.97%
Activity (HCT-116 [20]): 1.38%
viability at 7.5 µM (HCT-116 [21]): 57.4%
Activity (HCT-116 [22]): 1.19%
Activity (HCT-116 [23]): 0.51%
viability at 0.3 µM (HCT-116 [24]): 76.3%
Activity (HCT-116 [25]): 23.69%
Activity (HCT-116 [26]): 0%
Activity (HCT-116 [27]): 30.42%
viability at 7.5 µM (HCT-116 [28]): 20.5%
Activity (HCT-116 [29]): 79.44%
Activity (HCT-116 [30]): 0.05%
Activity (HCT-116 [31]): 0.01%
Activity (HCT-116 [32]): 85.84%
Activity (HCT-116 [33]): 14.16%
Activity (HCT-116 [34]): Dose-Dependent Effect
Activity (HCT-116 [35]): Dose-Dependent Effect
